What was measured:
cardiac P2X receptor = assay: Whole-cell voltage clamp of P2 agonist-induced current in WT ventricular myocytes; type: cell-based, mouse
Text: Mice displaying the CSQ model of severe cardiomyopathy and heart failure were bred and maintained by methods known in the art. The CSQ transgenic (TG) mice were originally provided by Dr. Larry Jones (Krannert Institute of Cardiology, Indiana University School of Medicine, Indiana), and developed hypertrophy followed by a lethal heart failure phenotype with death near the age of 3 months. Ventricular myocytes were obtained from 3-month old wild type (WT) and CSQ mice of either sex (26 WT, 47 TG) by an enzymatic dissociation procedure. Briefly, the hearts were rapidly excised from mice that had been anesthetized with pentobarbital and treated with 1000 Units of heparin. The aorta was cannulated and the heart perfused in a Langendorff apparatus with oxygenated (95% O2/5% CO2) Ca^2+-free solution (37° C.) for 5 minutes at a rate of 2.5 ml/min. The solution composition was: 126 mM NaCl, 4.4 mM KCl, 1.0 mM MgCl2, 18 mM NaHCO3, 11 mM Glucose, 4 mM HEPES, and 3 mM BDM (2,3-butanedione monoxime), (pH 7.3 adjusted with NaOH). Thereafter, the perfusing solution was changed to that containing 25 μM CaCl2 and liberase (70 μg/ml, Roche Molecular Biochemicals, Inc.) for 8-10 minutes. Cells were sedimented by gravity for 10-15 minutes and the pellet was resuspended in 200 μM Ca^2+-containing Tyrode's solution (containing 3 mM BDM), allowed to settle for 30 minutes at room temperature, and suspended with Tyrode's solution containing: 135 mM NaCl, 5.4 mM KCl, 1.0 mM CaCl2, 1.0 mM MgCl2, 10 mM HEPES and 10 mM dextrose (pH 7.4 adjusted with NaOH). The experiments were carried out at room temperature (22-23° C.) and were completed within 4-6 hours after myocyte isolation.
The whole cell patch-clamp technique was used for these experiments. Electrodes were prepared from borosilicate glass pipettes (1.2 mm i.d.) with a two step pulling procedure and filled with pipette solution. The pipette was connected via an Ag—AgCl wire to the head stage of an amplifier (List EPC-7, Medical Systems, Greenvale, N.Y.) controlled by a computer and Axon pClamp™ software. For voltage clamp experiments, the electrodes were filled with a solution containing: 135 mM cesium aspartate, 5 mM NaCl, 5 mM Mg2ATP, 10 mM HEPES, and 10 mM EGTA (pH 7.3 adjusted with CsOH) with or without 2 mM GDPβS. Electrode resistances were 2-4 MΩ. As soon as electrical contact was established, the superfusion medium was changed to a modified Tyrode's solution (5.4 mM KCl was omitted and 10 mM CsCl and 5 μM ouabain were added to Tyrode's solution to block K^+ currents and the Na/K pump current, respectively). In quantifying the P2 agonist-induced current, the Tyrode's solution contained the indicated concentration of each agent. In studying the effect of a P2 receptor antagonist, both agonist and antagonist were co-applied at the indicated concentrations. The voltage clamp protocol used was a ramp voltage protocol from −100 mV holding potential to +50 mV. The ramp protocol was applied to cells at 20 s intervals for 1 minute. Three current traces from −100 mV to 50 mV were averaged to construct the I-V relationship.

WT mice = assay: Survival after LAD ligation-induced myocardial infarction in WT mice; type: in vivo, mouse; details: treated from two days post-infarction, up to 60 days post-infarction
Description: Ligation of LAD in anesthetized mice was carried out using procedures similar to those previously described in the art. Adult WT (BL6) or P2X4R Tg mice 12-14 weeks old of either gender were anesthetized with ketamine (100 mg/kg) and xylazine (5 mg/kg) intraperitoneally. Under a dissecting microscope, mice were placed in a supine position on a heated pad to keep body temperature at 37° C. After endotracheal intubation, the cannula was connected to a small rodent ventilator (Hugo Sachs-Harvard Apparatus, Minivent Type 845, Holliston, Mass.) on room air with a stroke volume of 0.3 ml at a rate of 160 per min. A left intercostals thoracotomy was performed and myocardial infarction was produced by ligating the left anterior descending coronary artery with an 8-0 nylon suture within 2 mm below the edge of left atrium near the origin of the artery. The ligation was deemed successful when the left anterior wall turned pale and the ligation was aimed to induce a 30-40% infarct size. Animals were used according to the approved protocols of the Institutional Review Board at University of Connecticut School of Medicine.
The LAD ligation-mediated ischemic cardiomyopathy was induced in WT mice. (FIG. 26) At two days post-infarction, 15 mice were treated with […] and 19 mice were treated with NS (normal saline as the vehicle control). […]

Nc1nc(Cl)nc2c1ncn2C1[C@H]2C[C@@]2(COP(=O)(O)O)[C@@H](O)[C@H]1O (stereo partly drawn) [MRS2339, (1′S,2′R,3′S,4′R,5′S)-4-(6-amino-2-chloro-9H-purin-9-yl)-1-[phosphoryloxymethyl]bicyclo[3.1.0]hexane-2,3-diol]
Effect of GDPβS on MRS2339-evoked current density (cardiac P2X receptor; at +50 mV): no difference
MRS2339-evoked current density in the absence of GDPβS (cardiac P2X receptor; at −100 mV): −0.73±0.15 pA/pF
MRS2339-evoked current density with GDPβS (cardiac P2X receptor; at −100 mV): −0.66±0.10 pA/pF
Post-infarction survival (WT mice): greater than 95%
